Source: patent US9975911B2, “Antibacterial compounds and biological applications thereof” (LABORATOIRE BIODIM, priority 2012, dated 2018)
Where two headings read alike, the source gives them in different places.

Experiments:
[1] = molecular target: GmhA of E. coli (Escherichia coli, UniProt P63224); experiment: Inhibition of the enzymatic activity of GmhA (luminescent assay); assay type: biochemical
Procedure: Inhibition of the Enzymatic Activity of GmhA (Luminescent Assay):
The assay buffer “AB” contained 50 mM Hepes pH7.5, 1 mM MnCl2, 25 mM KCl, 0.012% Triton-X100, 1 mM dithiothreitol (DTT) and 0.1 μM Myelin basic protein (MBP). The following components were added in a white polystyrene Costar plate up to a final volume of 30 μL: 10 μL inhibitor dissolved in DMSO/water 50/50, and 20 μL GmhA of E. coli in AB. After 30 min of pre-incubation at room temperature, 30 μL of Substrates mix in AB were added in each well to a final volume of 60 μL. This reaction mixture was then composed of 2 nM GmhA, 3 μM sedoheptulose-7-phosphate (Sigma), 3 μM ATP (Sigma) and 50 nM HldE of E. coli in assay buffer. After 30 minutes of incubation at room temperature, 100 μL of the revelation mix were added to a final volume of 160 μL, including the following constituents at the respective final concentrations: 10000 light units/mL luciferase (Sigma), 20 μM D-luciferin (Sigma), 100 μM N-acetylcysteamine (Aldrich). Luminescence intensity was immediately measured on Luminoskan (Thermofisher) and converted into inhibition percentages. For IC50 determinations, the inhibitor was tested at 6 to 10 different concentrations, and the related inhibitions were fitted to a classical Langmuir equilibrium model using XLFIT (IDBS).

[2] = test system: E. coli C7 (018:K1:H7) LPS heptosylation; experiment: Inhibition of E. coli C7 (018:K1:H7) LPS biosynthesis (LPS gel electrophoresis, Re-LPS band); assay type: cell-based; details: read-out: EC50 of E. coli C7 LPS heptosylation inhibition
Procedure: Inhibition of E. coli C7 (018:K1:H7) LPS Biosynthesis:
The inner core contains several heptose residues. An inhibitor of the LPS heptosylation pathway should therefore reduce dramatically the size of LPS from full-length to the so-called ‘Re-LPS’ limited to lipid A branched with 2 Kdo residues.
The effect of heptosylation inhibitors on E. coli LPS was assessed as described below. The compounds to be tested were prepared in deionised water/DMSO (50/50) solutions and added (25 μL) in sterile culture microtubes. The strain used in this study was E. coli C7 (018:K1:H7). The bacteria were isolated on tryptic soy agar (TSA) overnight. Isolated colonies were cultured in 10 mL of Luria-Bertani medium (LB) at 37° C. up to an optical density (OD) of typically 0.15. These exponentially growing bacteria were finally diluted to 5e5 cfu/mL and added in each well (225 μL) for incubation with the compounds at 37° C. for approximately 5 hours, up to an optical density of ≈0.2-0.4. Some test compounds e.g. phospho-sugars required Glucose-6-Phosphate (G6P, from Sigma) to be added in the culture medium in order to activate their active transport into the bacterial cytosol via the phospho-sugar transporter UhpT. This was achieved by adding in the culture tube 2.5 μL of a 10 mM water solution of G6P (100 μM final concentration).
Bacterial cultures were normalized via OD determination, pelleted and washed with 1 mL Phosphate-Buffer-Saline (PBS). The pellets were then denatured for 10 min at 95-100° C. in 50 μL of Sodium dodecyl sulphate 0.2% (SDS), beta-mercaptoethanol 1%, Glycerol 36%, Tris pH 7.4 30 mM and bromophenol blue 0.001%. Samples were cooled down to room temperature, supplemented with 1.5 μl of proteinase K at 20 mg/mL, incubated for 1 hour at 55° C. and centrifuged for […] at 13,000 rpm at 25° C. The resulting supernatant, containing LPS, was finally analysed by SDS-PAGE electrophoresis.
LPS SDS-PAGE Electrophoresis:
Polyacrylamide gels (16%/4% acrylamide for separation and concentration respectively) were prepared, loaded with 8 μL of LPS extracts and migrated.
Gels were incubated overnight in 5% acetic acid/40% ethanol/deionised water, treated by 1% periodic acid/5% acetic acid for 15 min, washed 4 times for 10 min in deionised water and finally incubated for 18 min in the dark in a silver nitrate solution composed of 56 mL NaOH 0.1N, 4 mL ammoniac 33%, 45 mL AgNO3 5% (Tsai and Frasch) and 195 mL deionised water. Gels were then washed extensively in deionised water for 30 min and incubated for 10-15 min (up to LPS bands apparition) in the revelation mix composed of 300 mL deionised water, 300 μL formaldehyde 36.5% (Fluka) and 100 μL citric acid 2.3M. The revelation was stopped by incubating the gels in acetic acid 10% for 5 min. Gels were finally washed in deionised water, numerized with a Samsung PL51 camera and analysed by ImageJ software. The percentage of inhibition of LPS heptosylation was defined as the relative area of the Re-LPS band compared to the cumulated areas of Re-LPS and Core-LPS bands.

[3] = test system: E. coli C7 (O18:K1:H7); experiment: Combination with antibiotics on E. coli C7 (MIC of the antibiotics); assay type: cell-based; details: in the presence of 100 μM G6P; for MIC of the antibiotic alone: without test compound
Procedure: Combination with Antibiotics on E. coli C7 (018:K1:H7):
The compound to be tested was diluted in 50 mM HEPES buffer pH 7.4 from 10 mM stock solution. 5 μL of compound dilution or buffer were distributed in a sterile clear round bottom 96-well polystyrene microplate (Corning). 5 μL of serial 2-fold dilutions of reference antibiotics (Erythromycin (Fluka), Rifampicin (Fluka), or Synercid® (Monarch Pharmaceuticals)) in DMSO were added. An exponentially growing preculture of E. coli C7 (O18:K1:H7) in LB was diluted to 1e4 cfu/mL and supplemented with 100 μM G6P, and 90 μL of this suspension were added to the microplates. After overnight incubation at 37° C., the minimal inhibitory concentration (MIC) of the antibiotics were determined for each test compound concentration, as the lowest antibiotic concentration for which no bacterial pellet is visible without magnification.

[4] = test compound at concentrations <1 mM

Sequence of GmhA of E. coli (P63224 whole entry): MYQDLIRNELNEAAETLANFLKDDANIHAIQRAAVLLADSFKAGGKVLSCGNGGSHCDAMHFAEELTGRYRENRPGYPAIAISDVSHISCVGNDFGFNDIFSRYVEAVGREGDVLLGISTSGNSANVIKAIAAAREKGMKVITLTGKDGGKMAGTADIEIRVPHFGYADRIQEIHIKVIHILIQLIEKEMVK

O=CN(O)C(CO)[C@H](O)[C@H](O)[C@H](O)CCP(=O)(O)O (single isomer, unassigned) [Example 7]
IC50 ([1]; read-out: IC50 GmhA E. coli): 0.046 µM | EC50 ([2]; Escherichia coli): 220 µM

O=CN(O)C(CO)[C@H](O)[C@H](O)[C@H](O)CCP(=O)(O)O (single isomer, unassigned) [Example 8]
IC50 ([1]; read-out: IC50 GmhA E. coli): 0.027 µM | EC50 [2]: 180 µM

O=CN(O)C[C@H](O)[C@H](O)[C@H](O)COP(=O)([O-])O.[Na+] [Example 2, N-hydroxy-N-formylamino-1-deoxy-D-ribitol-5-phosphate]
MIC of Synercid in combination with the compound [3, 4]: 8 µg/mL | MIC of erythromycin in combination with the compound [3, 4]: 1 µg/mL | MIC of rifampicin in combination with the compound [3, 4]: 0.25 µg/mL | potentiation of Synercid [3, 4]: 16 fold | potentiation of erythromycin [3, 4]: 32 fold | potentiation of rifampicin [3, 4]: 16 fold | IC50 ([1]; read-out: IC50 GmhA E. coli): 0.0024 µM | EC50 ([2]; Escherichia coli): 18 µM

O=CN(O)C[C@H](O)[C@H](O)[C@H](O)CCP(=O)(O)O [Example 3, [6-(Formyl-hydroxy-amino)-(3R,4R,5S)-3,4,5-trihydroxy-hexyl]-phosphonic acid]
IC50 ([1]; IC50 GmhA E. coli): 0.003 µM | EC50 ([2]; Escherichia coli): 18 µM

O=CN(O)C[C@H](O)[C@H](O)[C@H](O)CC(F)P(=O)(O)O (stereo partly drawn) [Example 9, [1-Fluoro-6-(formyl-hydroxy-amino)-(3R,4R,5S)-3,4,5-trihydroxy-hexyl]-phosphonic acid]
IC50 ([1]; IC50 GmhA E. coli): 0.015 µM | EC50 ([2]; Escherichia coli): 76 µM

CC[C@H]1OC(=O)[C@H](C)[C@@H](O[C@H]2C[C@@](C)(OC)[C@@H](O)[C@H](C)O2)[C@H](C)[C@@H](O[C@@H]2O[C@H](C)C[C@H](N(C)C)[C@H]2O)[C@](C)(O)C[C@@H](C)C(=O)[C@H](C)[C@@H](O)[C@]1(C)O [erythromycin, Erythromycin, reference compound]
MIC of the antibiotic alone [3]: 32 µg/mL

CO[C@H]1/C=C/O[C@@]2(C)Oc3c(C)c(O)c4c(O)c(c(/C=N/N5CCN(C)CC5)c(O)c4c3C2=O)NC(=O)/C(C)=C\C=C\[C@H](C)[C@H](O)[C@@H](C)[C@@H](O)[C@@H](C)[C@H](OC(C)=O)[C@@H]1C [rifampicin, Rifampicin, reference compound]
MIC of the antibiotic alone [3]: 4 µg/mL
